pIC50: −log10 of the molar value.
Legend:
Autotaxin [1] = target: T1, Autotaxin (Homo sapiens, UniProt Q13822); test: Inhibition of human recombinant ATX using FS-3 as substrate incubated in dark for 45 mins by fluorescence assay
Autotaxin [2] = target: T1, Autotaxin; test: Inhibition of ATX in human plasma assessed as decrease in hydrolysis of lysophosphatidylcholine by measuring choline release after 24 hrs by horseradish peroxidase/choline oxidase-coupled assay; assay type: cell-free
[3] = Volume of distribution at steady state in CD1 mouse at 1 mg/kg, iv administered as bolus dose measured up to 7 hrs by UPLC/MS/MS spectrometry analysis; assay type: ADME, organism-based; conditions: in vivo, read-out: Vdss
[4] = Blood clearance in CD1 mouse at 1 mg/kg, iv administered as bolus dose measured up to 7 hrs by UPLC/MS/MS spectrometry analysis; assay type: ADME, organism-based
[5] = Half life in CD1 mouse blood at 1 mg/kg, iv administered as bolus dose measured up to 7 hrs by UPLC/MS/MS spectrometry analysis; assay type: ADME, organism-based
[6] = Intrinsic clearance in CD1 mouse liver microsomes assessed per gram of liver at 1 uM in presence of NADPH regenerating system measured up to 45 mins by UPLC/MS/MS analysis; assay type: ADME; conditions: 0.75 h
Autotaxin [7] = target: T1, Autotaxin; test: Inhibition of human recombinant ATX using Rac-1-Palmitoyl-glycero-3-phosphocholine as substrate incubated for 2 hrs using ADHP fluorogenic peroxidase substrate by horseradish peroxidase/choline oxidase-coupled assay
[8] = Intrinsic clearance in human liver microsomes assessed per gram of liver at 1 uM in presence of NADPH regenerating system measured up to 45 mins by UPLC/MS/MS analysis; assay type: ADME; conditions: 0.75 h
[9] = Volume of distribution at steady state in CD1 mouse at 0.5 mg/kg, iv administered as bolus dose measured up to 7 hrs by UPLC/MS/MS spectrometry analysis; assay type: ADME, organism-based; conditions: in vivo, read-out: Vdss
[10] = Blood clearance in CD1 mouse at 0.5 mg/kg, iv administered as bolus dose measured up to 7 hrs by UPLC/MS/MS spectrometry analysis; assay type: ADME, organism-based
[11] = Half life in CD1 mouse blood at 0.5 mg/kg, iv administered as bolus dose measured up to 7 hrs by UPLC/MS/MS spectrometry analysis; assay type: ADME, organism-based

Row | Structure (SMILES) | pIC50 (Autotaxin [2]) | CLH [6] | pIC50 (Autotaxin [7]) | further results
1 | C[C@H](NC(=O)CCc1nc2cccnc2n1Cc1ccc(C(F)(F)F)cc1)c1ccc(Cl)cc1 | 7.80 | 26.5 mL/min/g | – | Vd [3]: 0.88 L/kg; clearance [4]: 4.32 L/h/kg; half-life [5]: 19.8 min
2 | O=C(CCc1nc2cccnc2n1Cc1ccccc1)NCc1ccccc1 | – | – | 5.91 | –
3 | COc1ccc(Cn2c(CCC(=O)N[C@@H](C)c3ccccc3)nc3cccnc32)cc1 | 6.50 | 35 mL/min/g | – | CLH [8]: 21.4 mL/min/g; Vd [9]: 0.19 L/kg; clearance [10]: 4.5 L/h/kg; half-life [11]: 10.2 min
4 | C[C@H](NC(=O)CCc1nc2cccnc2n1Cc1ccc(F)cc1)c1ccc(F)cc1 | 6.35 | – | – | –
5 | O=C(CCc1nc2cccnc2n1Cc1ccc(F)cc1)N[C@@H](CO)c1ccc(Cl)cc1 | 7.59 | 4.4 mL/min/g | 8.30 | Vd [3]: 0.2 L/kg; clearance [4]: 4.38 L/h/kg; half-life [5]: 9.6 min
6 | C[C@H](NC(=O)CCc1nc2ccncc2n1Cc1ccc(F)cc1)c1ccc(F)cc1 | 6.48 | – | – | –
7 | COc1ccc(Cn2c(CCC(=O)N[C@H](C)c3ccccc3)nc3cccnc32)cc1 | 5.07 | – | – | –

Continued, in another order:

Row | pIC50 (Autotaxin [2]) | CLH [6] | pIC50 (Autotaxin [7]) | Structure (SMILES) | further results
8 | 5.05 | – | – | COc1ccc(CNC(=O)CCc2nc3cccnc3n2Cc2ccccc2)cc1 | pIC50 (Autotaxin [1]): 7.40
9 | 5.48 | 21.8 mL/min/g | 6.44 | C[C@H](NC(=O)OCc1nc2cccnc2n1Cc1ccc(F)cc1)c1ccc(F)cc1 | –
10 | 6.38 | – | – | C[C@H](NC(=O)NCc1nc2cccnc2n1Cc1ccc(F)cc1)c1ccc(Cl)cc1 | –
11 | 7.47 | 18.1 mL/min/g | – | C[C@H](NC(=O)CCc1nc2ccncc2n1Cc1ccc(OC(F)(F)F)cc1)c1ccc(Cl)cc1 | Vd [3]: 0.2 L/kg; clearance [4]: 4.38 L/h/kg; half-life [5]: 8.4 min
12 | 6.54 | 21.4 mL/min/g | – | C[C@H](NC(=O)CCc1nc2cccnc2n1Cc1ccccc1)c1ccccc1 | CLH [8]: 62 mL/min/g
13 | 7.72 | 71.5 mL/min/g | – | C[C@H](NC(=O)CSc1nc2cccnc2n1Cc1ccc(OC(F)(F)F)cc1)c1ccc(F)cc1 | Vd [3]: 0.3 L/kg; clearance [4]: 4.86 L/h/kg; half-life [5]: 12 min
14 | – | – | 5.46 | O=C(CCc1nc2cccnc2n1Cc1ccccc1)NCCc1ccccc1 | –
15 | – | – | 4.96 | O=C(CCc1nc2cccnc2n1Cc1ccccc1)NCc1ccccn1 | –
16 | – | – | 5.90 | O=C(CCc1nc2cccnc2n1Cc1ccccc1)NCc1cccc(F)c1 | –

— ChEMBL document CHEMBL3864162, “Discovery of potent inhibitors of the lysophospholipase autotaxin” (Bioorg Med Chem Lett, 2016)
